In patent US7371867B2, “Non-racemic trifluoroleucine, and methods of making and using” (Trustees of Tufts College, priority 2001, dated 2008):

melting point: 85 to 91 °C
Compound: CC(C)(C)OC(=O)N[C@@H](CC(C(F)(F)F)C(F)(F)F)C(=O)O [Peptide 5, N-Boc-5,5,5,5′,5′,5′-(S)-Hexafluoroleucine]
